Key:
[1] = In-vitro Caco-2 permeability study (Example 1B-2); details: human
[2] = Pharmacokinetic study of ILY-4001, IV and oral (Example 1B-3); format: in vivo, mice; details: 30 mg/kg oral
Experimental: This example evaluated the bioavailability of ILY-4001 [2-(3-(2-amino-2-oxoacetyl)-1-(biphenyl-2-ylmethyl)-2-methyl-1H-indol-4-yloxy)acetic acid], alternatively referred to herein as methyl indoxam. Specifically, a pharmokinetic study was conducted to determine the fraction of unchanged ILY-4001 in systemic circulation following administration.
Bioavailability was calculated as a ratio of AUC-oral/AUC-intravenous (IV). To determine this ratio, a first set of subject animals were given a measured intravenous (IV) dose of ILY-4001, followed by a determination of ILY-4001 levels in the blood at various time points after administration (e.g., 5 minutes through 24 hours). Another second set of animals was similarly dosed using oral administration, with blood levels of ILY-4001 determined at various time points after administration (e.g., 30 minutes through 24 hours). The level of ILY-4001 in systemic circulation were determined by generally accepted methods (for example as described in Evans, G., A Handbook of Bioanalysis and Drug Metabolism. Boca Raton, CRC Press (2004)). Specifically, […]/mass spectrometry/mass spectrometry (LC/MS/MS) analytical methods were used to quantitate plasma concentrations of ILY-4001 after oral and intravenous administration. Pharmacokinetic parameters that were measured include Cmax, AUC, tmax, t1/2, and F (bioavailability). […]

[3] = target: human PLA2 IB enzyme (Homo sapiens, UniProt P04054); details: versus the human PLA2 IB enzyme; cited from earlier work
human PLA2 IB enzyme, sequence (P04054 23-148): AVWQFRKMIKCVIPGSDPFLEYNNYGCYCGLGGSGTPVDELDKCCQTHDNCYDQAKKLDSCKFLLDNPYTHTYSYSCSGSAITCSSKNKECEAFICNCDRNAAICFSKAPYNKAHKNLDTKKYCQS

[4] = target: T1, human group 1B PLA2 (hps PLA2) (Homo sapiens, UniProt P04054); assay: Fluorimetric PPyrPM assay for group 1B PLA2 inhibition (Example 12); format: biochemical; details: human pancreas secreted PLA2; read-out: ILYPSA IC50 hps PLA2
T1 construct: made in house; host or cells: E. coli
T1 sequence (P04054 23-148): as above

SMILES | Papp A→B at 6 hr, 50 ug/ml [1] [×10⁻⁶ cm/s] | level of non-absorption from the GI tract into systemic circulation [2] [%] | IC50 [3] [nM] | IC50 [4] [nM]
Cc1c(C(=O)C(N)=O)c2c(OCC(=O)O)cccc2n1Cc1ccccc1-c1ccccc1 [ILY-4001, 2-(3-(2-amino-2-oxoacetyl)-1-(biphenyl-2-ylmethyl)-2-methyl-1H-indol-4-yloxy)acetic acid] | ~0.166 | ~72 | ~200 | –
Cc1c(C(=O)C(N)=O)c2c(OCC(=O)O)cccc2n1CCCCCCCCSCCCCCCCCSCCCCCCCCn1c(C)c(C(=O)C(N)=O)c2c(OCC(=O)O)cccc21 [ILY-V-24, 2,2′-(1,1′-(8,8′-(Octane-1,8-diylbis(sulfanediyl))bis(octane-8,1-diyl))bis(3-(2-amino-2-oxoacetyl)-2-methyl-1H-indole-4,1-diyl))bis(oxy)diacetic acid] | – | – | – | 540

From US20070135383A1, “Phospholipase inhibitors, including multi-valent phospholipase inhibitors, and use thereof, including as lumen-localized phospholipase inhibitors” (priority 2005, published 2007)
